Laboratory results from article PMC4394430, “Licochalcone A, a Polyphenol Present in Licorice, Suppresses UV-Induced COX-2 Expression by Targeting PI3K, MEK1, and B-Raf” (International Journal of Molecular Sciences, 2015).

Assays:
B-Raf [1] = target: T1, B-Raf (Homo sapiens, UniProt P15056); conditions: 10 and 100 uM ATP; 4 C; competitive with LicoA
T1 construct: gene BRAF

B-Raf [2] = target: T1, B-Raf; test: LicoA-Sepharose 4B pull-down, immunoblot; assay type: binding; conditions: pH 7.5; 4 C; immobilised LicoA; blocked by ATP (ATP-competitive)
MEK1 = target: T2, MEK1 (Homo sapiens, UniProt Q02750); test: LicoA-Sepharose 4B pull-down, immunoblot; assay type: binding; conditions: pH 7.5; 4 C; immobilised LicoA; not blocked by ATP (non-competitive)
T2 construct: gene MAP2K1
T2 sequence (Q02750 whole entry): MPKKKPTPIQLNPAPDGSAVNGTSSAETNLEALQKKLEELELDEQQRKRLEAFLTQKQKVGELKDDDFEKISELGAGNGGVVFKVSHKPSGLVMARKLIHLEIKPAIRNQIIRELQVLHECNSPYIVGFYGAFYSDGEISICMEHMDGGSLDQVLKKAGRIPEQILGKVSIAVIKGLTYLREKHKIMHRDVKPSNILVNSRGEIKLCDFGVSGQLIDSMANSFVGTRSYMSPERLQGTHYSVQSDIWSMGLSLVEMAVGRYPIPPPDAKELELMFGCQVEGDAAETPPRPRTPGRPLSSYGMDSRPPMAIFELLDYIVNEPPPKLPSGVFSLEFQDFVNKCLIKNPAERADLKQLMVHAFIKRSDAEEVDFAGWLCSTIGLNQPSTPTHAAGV

B-Raf [3] = target: T1, B-Raf; test: […] kinase assay, inactive MEK1 and MBP peptide; assay type: biochemical; conditions: 5 and 10 uM LicoA; pH 7.5; 30 C; coupled readout; ATP-competitive

T1 sequence (P15056 2-766): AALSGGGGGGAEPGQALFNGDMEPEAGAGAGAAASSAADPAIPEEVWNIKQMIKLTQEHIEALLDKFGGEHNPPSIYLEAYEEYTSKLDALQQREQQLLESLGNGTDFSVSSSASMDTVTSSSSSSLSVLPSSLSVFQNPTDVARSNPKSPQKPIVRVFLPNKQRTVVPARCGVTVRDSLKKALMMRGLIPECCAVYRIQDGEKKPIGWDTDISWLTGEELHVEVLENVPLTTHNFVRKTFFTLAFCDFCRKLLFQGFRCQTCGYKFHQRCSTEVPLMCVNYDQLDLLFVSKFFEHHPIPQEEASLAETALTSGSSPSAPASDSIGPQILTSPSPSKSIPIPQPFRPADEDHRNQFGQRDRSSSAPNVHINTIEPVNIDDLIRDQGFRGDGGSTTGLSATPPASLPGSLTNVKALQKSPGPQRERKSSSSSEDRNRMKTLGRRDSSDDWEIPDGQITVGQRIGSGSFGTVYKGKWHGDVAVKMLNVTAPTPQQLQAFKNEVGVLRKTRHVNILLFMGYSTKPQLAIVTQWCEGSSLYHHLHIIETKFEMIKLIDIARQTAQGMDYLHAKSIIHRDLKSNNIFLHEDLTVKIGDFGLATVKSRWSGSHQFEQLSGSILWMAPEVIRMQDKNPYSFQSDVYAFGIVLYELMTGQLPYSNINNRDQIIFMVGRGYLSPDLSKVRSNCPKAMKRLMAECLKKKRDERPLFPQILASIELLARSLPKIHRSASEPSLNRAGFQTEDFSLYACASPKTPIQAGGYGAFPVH

Compound | ATP competition with LicoA-Sepharose 4B pull-down (B-Raf [1]) | LicoA-Sepharose 4B pull-down, immunoblot (B-Raf [2]) | LicoA-Sepharose 4B pull-down, immunoblot (MEK1) | % inhibition (B-Raf [3])
Nc1ncnc2c1ncn2[C@@H]1O[C@H](COP(=O)(O)OP(=O)(O)OP(=O)(O)O)[C@@H](O)[C@H]1O [ATP] | ATP treatment blocked the binding ability of LicoA with PI3K (Figure 4B) and B-Raf (Figure 4F) | – | – | –
C=CC(C)(C)c1cc(/C=C/C(=O)c2ccc(O)cc2)c(OC)cc1O [LicoA, Licochalcone A] | – | LicoA binds with PI3K and B-Raf in competition with ATP | LicoA binds with MEK1 in an ATP non-competitive manner | strongly blocked B-Raf (Figure 3C) activity in a dose-dependent manner
